Source: ChEMBL document CHEMBL3351253, “Sterol fatty acid esters from the mushroom Hericium erinaceum and their PPAR transactivational effects” (J Nat Prod, 2014)

Columns and labels:
Type in all cases: cell-based
[1] = biological target: T1, Peroxisome proliferator-activated receptor alpha (Homo sapiens) (UniProt Q07869); test: Transactivation of human Gal4-PPARalpha LBD transfected in human HepG2 cells assessed as stimulation at 1 uM after 20 hrs by luciferase reporter gene assay relative to vehicle-treated control
T1 sequence (whole entry): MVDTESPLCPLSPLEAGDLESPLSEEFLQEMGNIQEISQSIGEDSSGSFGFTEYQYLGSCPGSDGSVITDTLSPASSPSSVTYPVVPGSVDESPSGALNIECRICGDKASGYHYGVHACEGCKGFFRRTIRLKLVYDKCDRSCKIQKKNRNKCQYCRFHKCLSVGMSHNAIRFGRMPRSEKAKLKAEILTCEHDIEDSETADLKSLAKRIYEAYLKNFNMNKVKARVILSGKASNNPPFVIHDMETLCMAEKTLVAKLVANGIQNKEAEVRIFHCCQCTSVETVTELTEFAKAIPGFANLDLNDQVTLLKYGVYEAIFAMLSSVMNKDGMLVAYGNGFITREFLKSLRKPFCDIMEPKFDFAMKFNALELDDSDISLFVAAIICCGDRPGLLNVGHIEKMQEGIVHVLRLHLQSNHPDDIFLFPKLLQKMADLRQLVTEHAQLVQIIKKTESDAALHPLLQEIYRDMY

[2] = biological target: T2, Peroxisome proliferator-activated receptor (Homo sapiens, UniProt P37231+Q07869+Q03181); test: (§1) Transactivation of PPAR transfected in human HepG2 cells after 20 hrs by PPAR-luciferase assay
T2 sequence (P37231 whole entry): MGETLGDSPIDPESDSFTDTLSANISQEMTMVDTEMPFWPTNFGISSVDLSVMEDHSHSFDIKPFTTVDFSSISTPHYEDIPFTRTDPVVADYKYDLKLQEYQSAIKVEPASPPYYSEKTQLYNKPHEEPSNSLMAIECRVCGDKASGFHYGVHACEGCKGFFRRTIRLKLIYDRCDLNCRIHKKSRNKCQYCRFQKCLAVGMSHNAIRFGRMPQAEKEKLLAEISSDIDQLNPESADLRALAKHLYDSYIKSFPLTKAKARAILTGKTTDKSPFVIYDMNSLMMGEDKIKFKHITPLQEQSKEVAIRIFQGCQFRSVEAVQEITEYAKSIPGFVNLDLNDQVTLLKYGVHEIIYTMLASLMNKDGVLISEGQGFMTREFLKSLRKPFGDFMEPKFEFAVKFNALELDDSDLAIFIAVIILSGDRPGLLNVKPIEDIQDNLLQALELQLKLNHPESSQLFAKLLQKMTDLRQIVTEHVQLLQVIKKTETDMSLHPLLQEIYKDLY
T2 sequence (Q07869 whole entry): T1 sequence (whole entry)
T2 sequence (Q03181 whole entry): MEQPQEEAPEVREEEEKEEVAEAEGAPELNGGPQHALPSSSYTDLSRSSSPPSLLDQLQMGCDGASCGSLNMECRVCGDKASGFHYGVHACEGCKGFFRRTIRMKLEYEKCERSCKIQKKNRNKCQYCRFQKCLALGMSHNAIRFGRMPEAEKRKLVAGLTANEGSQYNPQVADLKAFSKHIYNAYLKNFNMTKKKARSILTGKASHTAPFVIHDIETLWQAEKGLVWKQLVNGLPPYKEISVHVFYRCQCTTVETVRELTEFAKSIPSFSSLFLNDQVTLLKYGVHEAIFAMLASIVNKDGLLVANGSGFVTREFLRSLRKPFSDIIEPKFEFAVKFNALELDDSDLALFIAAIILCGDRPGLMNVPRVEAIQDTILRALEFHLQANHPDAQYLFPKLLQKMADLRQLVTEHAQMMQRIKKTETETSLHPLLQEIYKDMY

HepG2 = test: Cytotoxicity against human HepG2 cells assessed as CCK8 after 24 hrs; conditions: hepg2, 24 h
[3] = biological target: T3, Peroxisome proliferator-activated receptor delta (Homo sapiens) (UniProt Q03181); test: Transactivation of human Gal4-PPARbeta/delta LBD transfected in human HepG2 cells assessed as stimulation at 1 uM after 20 hrs by luciferase reporter gene assay relative to vehicle-treated control
T3 sequence (whole entry): T2 sequence (Q03181 whole entry)

[4] = biological target: Peroxisome proliferator-activated receptor (Homo sapiens) (UniProt P37231+Q07869+Q03181); test: as §1
[5] = biological target: T3, Peroxisome proliferator-activated receptor delta (Homo sapiens); test: Transactivation of human Gal4-PPARbeta/delta LBD transfected in human HepG2 cells assessed as stimulation at 5 uM after 20 hrs by luciferase reporter gene assay relative to vehicle-treated control
[6] = biological target: T4, Peroxisome proliferator-activated receptor gamma (Homo sapiens) (UniProt P37231); test: Transactivation of human Gal4-PPARgamma LBD transfected in human HepG2 cells assessed as stimulation at 5 uM after 20 hrs by luciferase reporter gene assay relative to vehicle-treated control
T4 sequence (whole entry): T2 sequence (P37231 whole entry)

[7] = biological target: T4, Peroxisome proliferator-activated receptor gamma (Homo sapiens); test: Transactivation of human Gal4-PPARgamma LBD transfected in human HepG2 cells assessed as stimulation at 10 uM after 20 hrs by luciferase reporter gene assay relative to vehicle-treated control
[8] = biological target: T3, Peroxisome proliferator-activated receptor delta (Homo sapiens); test: Transactivation of human Gal4-PPARbeta/delta LBD transfected in human HepG2 cells assessed as stimulation at 10 uM after 20 hrs by luciferase reporter gene assay relative to vehicle-treated control
[9] = biological target: T1, Peroxisome proliferator-activated receptor alpha (Homo sapiens); test: Transactivation of human Gal4-PPARalpha LBD transfected in human HepG2 cells assessed as stimulation at 10 uM after 20 hrs by luciferase reporter gene assay relative to vehicle-treated control
[10] = biological target: T4, Peroxisome proliferator-activated receptor gamma (Homo sapiens); test: Transactivation of human Gal4-PPARgamma LBD transfected in human HepG2 cells assessed as stimulation at 20 uM after 20 hrs by luciferase reporter gene assay relative to vehicle-treated control
[11] = biological target: T3, Peroxisome proliferator-activated receptor delta (Homo sapiens); test: Transactivation of human Gal4-PPARbeta/delta LBD transfected in human HepG2 cells assessed as stimulation at 20 uM after 20 hrs by luciferase reporter gene assay relative to vehicle-treated control
[12] = biological target: T1, Peroxisome proliferator-activated receptor alpha (Homo sapiens); test: Transactivation of human Gal4-PPARalpha LBD transfected in human HepG2 cells assessed as stimulation at 20 uM after 20 hrs by luciferase reporter gene assay relative to vehicle-treated control
[13] = biological target: T1, Peroxisome proliferator-activated receptor alpha (Homo sapiens); test: Transactivation of human Gal4-PPARalpha LBD transfected in human HepG2 cells assessed as stimulation at 5 uM after 20 hrs by luciferase reporter gene assay relative to vehicle-treated control

Row | EC50 [2] | SMILES | Activity (HepG2) | further results
1 |  | CC(C)(Oc1ccc(C2CC2(Cl)Cl)cc1)C(=O)O (centres undefined) |  | Activity [1]: 311%
2 | 18.7 µM | CCCCC/C=C\C/C=C\CCCCCCCC(=O)O[C@H]1CC[C@]2(C)[C@H]3CC[C@]4(C)[C@@H]([C@H](C)/C=C/[C@H](C)C(C)C)CC[C@H]4C3=C[C@H](O)[C@@]2(O)C1 | Non-toxic | 
3 |  | CCCc1c(OCCCOc2ccc(OCC(=O)O)cc2)ccc(C(C)=O)c1O |  | Activity [3]: 288%
4 | 20.6 µM | CCCCCCCCCCCCCCCCCC(=O)O[C@H]1CC[C@]2(C)[C@H]3CC[C@]4(C)[C@@H]([C@H](C)/C=C/[C@H](C)C(C)C)CC[C@H]4C3=C[C@H](O)[C@@]2(O)C1 | Non-toxic | 
5 | > 50 µM | CCCCCCCCCCCCCCCCCC(=O)O[C@H]1CC[C@@]2(C)C(=CC=C3[C@@H]4CC[C@H]([C@H](C)/C=C/[C@H](C)C(C)C)[C@@]4(C)CC[C@@H]32)C1 | Non-toxic | 
6 | 6.4 µM | CCCCC/C=C\C/C=C\CCCCCCCC(=O)O[C@H]1C2=C3CC[C@H]([C@H](C)/C=C/[C@H](C)C(C)C)[C@@]3(C)CC[C@@H]2[C@@]2(C)CC[C@H](O)C[C@@]23O[C@@H]13 | Non-toxic | Activity [4]: Dose-dependent effect; Activity [5]: 99.6%; Activity [6]: 129%; Activity [7]: 156%; Activity [8]: 111%; Activity [9]: 346%; Activity [10]: 162%; Activity [11]: 121%; Activity [12]: 386%; Activity [13]: 309%
7 | > 50 µM | CCCCCCCC/C=C\CCCCCCCC(=O)O[C@H]1C=C2[C@@H]3CC[C@H]([C@H](C)/C=C/[C@H](C)C(C)C)[C@@]3(C)CC[C@@H]2[C@@]2(C)CC[C@H](O)C[C@]12O | Non-toxic | 
8 | > 50 µM | CCCCCCCCCCCCCCCC(=O)O[C@H]1CC[C@@]2(C)C(=CC=C3[C@@H]4CC[C@H]([C@H](C)/C=C/[C@H](C)C(C)C)[C@@]4(C)CC[C@@H]32)C1 | Non-toxic | 
9 | > 50 µM | CCCCC/C=C\C/C=C\CCCCCCCC(=O)O[C@H]1C=C2[C@@H]3CC[C@H]([C@H](C)/C=C/[C@H](C)C(C)C)[C@@]3(C)CC[C@@H]2[C@@]2(C)CC[C@H](O)C[C@]12O | Non-toxic | 
10 | 8.2 µM | CCCCCCCC/C=C\CCCCCCCC(=O)O[C@H]1C2=C3CC[C@H]([C@H](C)/C=C/[C@H](C)C(C)C)[C@@]3(C)CC[C@@H]2[C@@]2(C)CC[C@H](O)C[C@@]23O[C@@H]13 | Non-toxic | Activity [4]: Dose-dependent effect; Activity [5]: 100%; Activity [6]: 114%; Activity [7]: 125%; Activity [8]: 102%; Activity [9]: 297%; Activity [10]: 133%; Activity [11]: 112%; Activity [12]: 314%; Activity [13]: 289%
11 | > 50 µM | CCCCCCCCCCCCCCCC(=O)O[C@H]1C=C2[C@@H]3CC[C@H]([C@H](C)/C=C/[C@H](C)C(C)C)[C@@]3(C)CC[C@@H]2[C@@]2(C)CC[C@H](O)C[C@]12O | Non-toxic | 
12 | 22.3 µM | CCCCC/C=C\C/C=C\CCCCCCCC(=O)O[C@H]1CC[C@]2(C)[C@@]3(O)CC[C@]4(C)[C@@H]([C@H](C)/C=C/[C@H](C)C(C)C)CC[C@H]4C3=C[C@H](O)[C@@]2(O)C1 | Non-toxic | 
13 | > 50 µM | CC/C=C\C/C=C\C/C=C\CCCCCCCC(=O)O[C@@H]1C=C2[C@@H]3CC[C@H]([C@H](C)/C=C/[C@H](C)C(C)C)[C@@]3(C)CC[C@@H]2[C@@]2(C)CC[C@H](O)C[C@]12O | Non-toxic | 
